Reference: patent EP4813999A1, “NOVEL PEPTIDE DERIVATIVE AND PHARMACEUTICAL COMPOSITION FOR PREVENTING OR TREATING MACULAR DEGENERATION COMPRISING SAME” (Supadelixir Inc., priority 2023, dated 2026)

System: ARPE19 cells
Test: Hydrogen peroxide-induced cellular senescence (SA-β-Gal activity staining)
Assay type: cell-based, Human
Settings: 200 µM hydrogen peroxide, test substance 0.01, 0.1, 1 µM, 24 hours
Method: Human retinal pigment epithelial cells (ARPE19) were cultured in a humidified incubator with 5% CO2 at 37°C. DMEM/F12 (Gibco) containing 10% fetal bovine serum and penicillin (100 U/ml)/streptomycin ([…]) was used as medium. The cells were cultured with the medium replaced with fresh medium every other day and were passaged using 0.25% trypsin containing 0.02% ethylenediaminetetraacetic acid (EDTA).
After cellular senescence caused by oxidative stress was promoted in ARPE19 cells using hydrogen peroxide (H2O2), the test substance (SE101B2L) was added at varying concentrations to evaluate inhibitory effects against cellular senescence. Inhibitory activity against cellular senescence was evaluated using senescence-associated β-galactosidase (SA-β-Gal) activity staining, which is well known as a marker for cellular senescence.
ARPE19 cells were seeded into a 96-well plate at 1 × 10^5 cells/well and cultured in an incubator with 5% CO2 at 37°C for 24 hours. […] Cells stained blue were observed under an optical microscope, and the degree of SA-β-gal activity was expressed as a percentage by measuring the number of cells stained blue in the cytoplasm among a total of 50 to 100 cells. The degree of senescence was quantified through measurement.

“decylbenzoyl-Cys-Phe-Lys-amide [SE101B2L]” was tested, and the SA-β-gal activity was “decreases SA-β-gal activity in a concentration-dependent manner”.
